Tests used:
[1] = cited from earlier work; for t1/2 in the human eye: in vivo
Solubility of axitinib = format: physicochemical
[2] = 1.25 mg intravitreal; cited from earlier work
[3] = test system: VEGF-induced vascular leakage; assay: VEGF challenge, vascular leakage scored by fluorescein angiography; format: in vivo, Dutch belted rabbits; settings: 1.25 mg Avastin alone (group 3); similar degree as control

Compound: CNC(=O)c1ccccc1Sc1ccc2c(/C=C/c3ccccn3)n[nH]c2c1 [axitinib, N-methyl-2-[3-((E)-2-pyridin-2-yl-vinyl)-1H-indazol-6-ylsulfanyl]-benzamide]
- Clearance half-life (t1/2) ([1]; patients, oral (Rugo et al.)): a few hours
- Solubility of axitinib in 25% ethanol/75% water mix (v/v) (Solubility of axitinib): approximately 19 μg/mL

Compound: Avastin: anti-VEGF therapeutic, 1.25 mg intravitreal
- Half-life in rabbits [2]: 158 h
- Vascular leakage after VEGF challenge, late [3]: after 3 months vascular leakage re-occurred

Compound: aflibercept: anti-VEGF agent, large molecule
- t1/2 in the human eye [1]: several days

Compound: ranibizumab: anti-VEGF agent, large molecule
- t1/2 in the human eye [1]: several days

Reference: patent publication US20230390189A1, “OCULAR IMPLANT CONTAINING AN ACTIVE INGREDIENT” (OCULAR THERAPEUTIX, INC., priority 2020, published 2023)
